Biological target: T1, Androgen Receptor (Homo sapiens, UniProt P10275+P40337, T878A)
T1 construct: Compounds have been evaluated in this assay in LNCaP and/or VCaP cells utilizing similar protocols; endogenous in cells; host or cells: LNCaP cells
Test: Androgen Receptor ELISA assay (PathScan AR ELISA) in LNCaP cells: AR degradation, Dmax and DC50
Format: cell-based
Conditions: for DC50: concentration that caused 50% Androgen Receptor degradation

[1] = highest percentage of Androgen Receptor degradation observed
[2] = highest percentage of Androgen Receptor degradation

T1 sequence (P10275 whole entry T878A): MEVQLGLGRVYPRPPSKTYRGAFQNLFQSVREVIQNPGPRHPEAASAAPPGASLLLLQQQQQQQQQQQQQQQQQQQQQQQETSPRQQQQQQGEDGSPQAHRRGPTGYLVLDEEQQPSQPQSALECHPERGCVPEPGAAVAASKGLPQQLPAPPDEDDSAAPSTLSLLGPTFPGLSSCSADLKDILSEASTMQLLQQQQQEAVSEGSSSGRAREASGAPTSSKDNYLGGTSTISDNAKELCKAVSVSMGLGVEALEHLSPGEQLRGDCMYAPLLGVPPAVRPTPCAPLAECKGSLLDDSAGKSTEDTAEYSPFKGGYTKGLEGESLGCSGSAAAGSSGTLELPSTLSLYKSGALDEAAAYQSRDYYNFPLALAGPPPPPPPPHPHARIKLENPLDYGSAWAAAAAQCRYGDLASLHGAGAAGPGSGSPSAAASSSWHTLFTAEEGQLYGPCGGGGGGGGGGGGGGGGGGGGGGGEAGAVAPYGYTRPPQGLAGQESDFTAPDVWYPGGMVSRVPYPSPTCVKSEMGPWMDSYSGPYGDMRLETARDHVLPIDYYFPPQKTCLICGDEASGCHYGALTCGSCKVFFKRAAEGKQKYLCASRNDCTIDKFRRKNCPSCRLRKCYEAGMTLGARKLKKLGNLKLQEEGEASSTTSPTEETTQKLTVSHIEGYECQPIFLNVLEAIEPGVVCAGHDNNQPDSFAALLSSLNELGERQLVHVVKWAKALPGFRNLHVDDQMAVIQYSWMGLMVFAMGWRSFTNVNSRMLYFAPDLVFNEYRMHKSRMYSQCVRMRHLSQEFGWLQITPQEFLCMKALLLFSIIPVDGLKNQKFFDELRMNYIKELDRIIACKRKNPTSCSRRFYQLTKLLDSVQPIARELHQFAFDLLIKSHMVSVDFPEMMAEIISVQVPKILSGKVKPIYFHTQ
T1 sequence (P40337 whole entry): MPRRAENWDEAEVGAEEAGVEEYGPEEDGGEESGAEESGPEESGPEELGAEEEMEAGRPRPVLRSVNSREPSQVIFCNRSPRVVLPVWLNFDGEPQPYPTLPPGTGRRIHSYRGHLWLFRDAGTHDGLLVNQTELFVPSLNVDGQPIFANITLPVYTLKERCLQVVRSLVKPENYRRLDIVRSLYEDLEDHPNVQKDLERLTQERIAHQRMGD
T1 sequence (Q15369 whole entry partner): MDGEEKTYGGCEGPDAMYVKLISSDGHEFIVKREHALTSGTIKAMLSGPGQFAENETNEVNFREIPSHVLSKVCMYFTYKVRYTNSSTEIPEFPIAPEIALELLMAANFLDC
T1 sequence (Q15370 whole entry partner): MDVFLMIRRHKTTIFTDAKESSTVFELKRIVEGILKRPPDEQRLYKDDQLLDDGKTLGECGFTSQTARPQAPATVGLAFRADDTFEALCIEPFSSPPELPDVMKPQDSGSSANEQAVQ

Cc1ncsc1-c1ccc(CNC(=O)[C@@H]2C[C@@H](O)CN2C(=O)[C@H](C(C)C)N2Cc3ccccc3C2=O)c(OCCOCCOCCOc2ccc(N3C(=S)N(c4ccc(C#N)c(C(F)(F)F)c4)C(=O)C3(C)C)cc2)c1 [Example 82, (2S,4R)—N-(2-(2-(2-(2-(4-(3-(4-cyano-3-(trifluoromethyl)phenyl)-5,5-dimethyl-4-oxo-2-thioxoimidazolidin-1-yl)phenoxy)ethoxy)ethoxy)ethoxy)-4-(4-methylthiazol-5-yl)benzyl)-4-hydroxy-1-((S)-3-methyl-2-(1-oxoisoindolin-2-yl)butanoyl)pyrrolidine-2-carboxamide]
DC50: 51 to 500 nM
Dmax [1]: 51 to 70%

Cc1ncsc1-c1ccc(CNC(=O)[C@@H]2C[C@@H](O)CN2C(=O)[C@H](C(C)C)N2Cc3ccc(F)cc3C2=O)c(OCCOCCOCCOc2ccc(N3C(=S)N(c4ccc(C#N)c(C(F)(F)F)c4)C(=O)C3(C)C)cc2)c1 [Example 83, (2S,4R)-N-{[2-(2-{2-[2-(4-{3-[4-cyano-3-(trifluoromethyl)phenyl]-5,5-dimethyl-4-oxo-2-sulfanylideneimidazolidin-1-yl}phenoxy)ethoxy]ethoxy}ethoxy)-4-(4-methyl-1,3-thiazol-5-yl)phenyl]methyl}-1-[(2S)-2-(6-fluoro-1-oxo-2,3-dihydro-1H-isoindol-2-yl)-3-methylbutanoyl]-4-hydroxypyrrolidine-2-carboxamide]
DC50: 51 to 500 nM
Dmax [1]: 51 to 70%

Cc1ncsc1-c1ccc(CNC(=O)[C@@H]2C[C@@H](O)CN2C(=O)[C@H](C(C)C)N2Cc3cccc(C#N)c3C2=O)c(OCCOCCOCCOc2ccc(N3C(=S)N(c4ccc(C#N)c(C(F)(F)F)c4)C(=O)C3(C)C)cc2)c1 [Example 84]
DC50: 51 to 500 nM
Dmax [1]: 51 to 70%

Cc1ncsc1-c1ccc(CNC(=O)[C@@H]2C[C@@H](O)CN2C(=O)[C@H](C(C)C)N2Cc3ccccc3C2=O)c(OCCO[C@H](C)[C@@H](C)OCCOc2ccc(N3C(=S)N(c4ccc(C#N)c(C(F)(F)F)c4)C(=O)C3(C)C)cc2)c1 [Example 85, (2S,4R)-N-{[2-(2-{[(2R,3R)-3-[2-(4-{3-[4-cyano-3-(trifluoromethyl)phenyl]-5,5-dimethyl-4-oxo-2-sulfanylideneimidazolidin-1-yl}phenoxy)ethoxy]butan-2-yl]oxy}ethoxy)-4-(4-methyl-1,3-thiazol-5-yl)phenyl]methyl}-4-hydroxy-1-[(2S)-3-methyl-2-(1-oxo-2,3-dihydro-1H-isoindol-2-yl)butanoyl]pyrrolidine-2-carboxamide]
DC50: > 501 nM
Dmax [1]: 51 to 70%

Cc1ncsc1-c1ccc(CNC(=O)[C@@H]2C[C@@H](O)CN2C(=O)[C@H](C(C)C)N2Cc3ccccc3C2=O)c(OCCCOCCOCCOc2ccc(N3C(=S)N(c4ccc(C#N)c(C(F)(F)F)c4)C(=O)C3(C)C)cc2)c1 [Example 205]
DC50: > 501 nM
Dmax [2]: < 25%

Cc1ncsc1-c1ccc(CNC(=O)[C@@H]2C[C@@H](O)CN2C(=O)[C@H](C(C)C)N2Cc3ccccc3C2=O)c(OCCOCCOc2ccc(N3C(=S)N(c4ccc(C#N)c(C(F)(F)F)c4)C(=O)C3(C)C)cc2)c1 [Example 206]
DC50: 51 to 500 nM
Dmax [2]: 51 to 70%

Cc1ncsc1-c1ccc(CNC(=O)[C@@H]2C[C@@H](O)CN2C(=O)[C@H](C(C)C)N2Cc3ccccc3C2=O)c(OCCCCOCCCCOCCCCOc2ccc(N3C(=S)N(c4ccc(C#N)c(C(F)(F)F)c4)C(=O)C3(C)C)cc2)c1 [Example 207]
DC50: 51 to 500 nM
Dmax [2]: 26 to 50%

Cc1ncsc1-c1ccc(CNC(=O)[C@@H]2C[C@@H](O)CN2C(=O)[C@H](C(C)C)N2Cc3ccccc3C2=O)c(OCCOCCOCCOCCOc2ccc(N3C(=S)N(c4ccc(C#N)c(C(F)(F)F)c4)C(=O)C3(C)C)cc2)c1 [Example 210]
DC50: > 501 nM
Dmax [2]: 26 to 50%

Cc1ncsc1-c1ccc(CNC(=O)[C@@H]2C[C@@H](O)CN2C(=O)[C@H](C(C)C)N2Cc3ccccc3C2=O)c(OCCOCCOCCOCCOCCOc2ccc(N3C(=S)N(c4ccc(C#N)c(C(F)(F)F)c4)C(=O)C3(C)C)cc2)c1 [Example 211]
DC50: 51 to 500 nM
Dmax [2]: 26 to 50%

Cc1ncsc1-c1ccc(CNC(=O)[C@@H]2C[C@@H](O)CN2C(=O)[C@@H](NC(=O)COCCOCCOCCOCCOCCOCCOc2ccc(N3C(=S)N(c4ccc(C#N)c(C(F)(F)F)c4)C(=O)C3(C)C)cc2)C(C)(C)C)cc1 [Example 212]
DC50: > 501 nM
Dmax [2]: > 71%

Cc1ncsc1-c1ccc(CNC(=O)[C@@H]2C[C@@H](O)CN2C(=O)[C@H](C(C)C)N2Cc3ccccc3C2=O)c(OCCOCCOCCCOCCOCCOc2ccc(N3C(=S)N(c4ccc(C#N)c(C(F)(F)F)c4)C(=O)C3(C)C)cc2)c1 [Example 214]
DC50: 51 to 500 nM
Dmax [2]: 51 to 70%

Cc1ncsc1-c1ccc(CNC(=O)[C@@H]2C[C@@H](O)CN2C(=O)[C@H](C(C)C)N2Cc3ccccc3C2=O)c(OCCOCCOCCCCOCCOCCOc2ccc(N3C(=S)N(c4ccc(C#N)c(C(F)(F)F)c4)C(=O)C3(C)C)cc2)c1 [Example 215]
DC50: 51 to 500 nM
Dmax [2]: 26 to 50%

Cc1ncsc1-c1ccc(CNC(=O)[C@@H]2C[C@@H](O)CN2C(=O)[C@@H](NC(=O)COCCOCCOCCCOCCOCCOc2ccc(N3C(=S)N(c4ccc(C#N)c(C(F)(F)F)c4)C(=O)C3(C)C)cc2)C(C)(C)C)cc1 [Example 216]
DC50: 51 to 500 nM
Dmax [2]: 51 to 70%

Cc1ncsc1-c1ccc(CNC(=O)[C@@H]2C[C@@H](O)CN2C(=O)[C@@H](NC(=O)COCCOCCOCCCCOCCOCCOc2ccc(N3C(=S)N(c4ccc(C#N)c(C(F)(F)F)c4)C(=O)C3(C)C)cc2)C(C)(C)C)cc1 [Example 217]
DC50: < 50 nM
Dmax [2]: 51 to 70%

Cc1ncsc1-c1ccc(CNC(=O)[C@@H]2C[C@@H](O)CN2C(=O)[C@H](C(C)C)N2Cc3ccccc3C2=O)c(OCCOCCOCCCCCOCCOCCOc2ccc(N3C(=S)N(c4ccc(C#N)c(C(F)(F)F)c4)C(=O)C3(C)C)cc2)c1 [Example 218]
Dmax [2]: 26 to 50%

Cc1ncsc1-c1ccc(CNC(=O)[C@@H]2C[C@@H](O)CN2C(=O)[C@H](C(C)C)N2Cc3ccccc3C2=O)c(OCCOCCOCCCCOCCCCOCCOCCOc2ccc(N3C(=S)N(c4ccc(C#N)c(C(F)(F)F)c4)C(=O)C3(C)C)cc2)c1 [Example 219]
Dmax [2]: > 71%

Cc1ncsc1-c1ccc(CNC(=O)[C@@H]2C[C@@H](O)CN2C(=O)[C@H](C(C)C)N2Cc3ccccc3C2=O)c(OCCOCCOCCCCCOCCCCCOCCOCCOc2ccc(N3C(=S)N(c4ccc(C#N)c(C(F)(F)F)c4)C(=O)C3(C)C)cc2)c1 [Example 220]
Dmax [2]: 51 to 70%

Cc1ncsc1-c1ccc(CNC(=O)[C@@H]2C[C@@H](O)CN2C(=O)[C@@H](NC(=O)COCCOCCOCCCCCOCCOCCOc2ccc(N3C(=S)N(c4ccc(C#N)c(C(F)(F)F)c4)C(=O)C3(C)C)cc2)C(C)(C)C)cc1 [Example 222]
Dmax [2]: 26 to 50%

Cc1ncsc1-c1ccc(CNC(=O)[C@@H]2C[C@@H](O)CN2C(=O)[C@@H](NC(=O)COCCOCCCCOCCCCOCCOCCOc2ccc(N3C(=S)N(c4ccc(C#N)c(C(F)(F)F)c4)C(=O)C3(C)C)cc2)C(C)(C)C)cc1 [Example 223]
Dmax [2]: 26 to 50%

Cc1ncsc1-c1ccc(CNC(=O)[C@@H]2C[C@@H](O)CN2C(=O)[C@@H](NC(=O)COCCOCCCCCOCCCCCOCCOCCOc2ccc(N3C(=S)N(c4ccc(C#N)c(C(F)(F)F)c4)C(=O)C3(C)C)cc2)C(C)(C)C)cc1 [Example 224]
Dmax [2]: 26 to 50%

Cc1ncsc1-c1ccc(CNC(=O)[C@@H]2C[C@@H](O)CN2C(=O)[C@@H](NC(=O)COCCOCCOCCCCCOc2ccc(N3C(=S)N(c4ccc(C#N)c(C(F)(F)F)c4)C(=O)C3(C)C)cc2)C(C)(C)C)cc1 [Example 225]
DC50: < 50 nM
Dmax [2]: 51 to 70%

Cc1ncsc1-c1ccc(CNC(=O)[C@@H]2C[C@@H](O)CN2C(=O)[C@@H](NC(=O)CCCCCOCCCCOCCCCOc2ccc(N3C(=S)N(c4ccc(C#N)c(C(F)(F)F)c4)C(=O)C3(C)C)cc2)C(C)(C)C)cc1 [Example 227]
DC50: < 50 nM
Dmax [2]: 26 to 50%

Cc1ncsc1-c1ccc(CNC(=O)[C@@H]2C[C@@H](O)CN2C(=O)[C@@H](NC(=O)CCOCCOCCCCCOc2ccc(N3C(=S)N(c4ccc(C#N)c(C(F)(F)F)c4)C(=O)C3(C)C)cc2)C(C)(C)C)cc1 [Example 228]
DC50: 51 to 500 nM
Dmax [2]: 51 to 70%

Cc1ncsc1-c1ccc(CNC(=O)[C@@H]2C[C@H](O)CN2C(=O)[C@H](C(C)C)N2Cc3ccccc3C2=O)c(OCCOCCOCCOc2ccc(N3C(=S)N(c4ccc(C#N)c(C(F)(F)F)c4)C(=O)C3(C)C)cc2)c1 [Example 229]
DC50: 51 to 500 nM
Dmax [2]: 51 to 70%

Cc1ncsc1-c1ccc(CNC(=O)[C@@H]2C[C@@H](O)CN2C(=O)[C@@H](NC(=O)CCNC(=O)CCCc2ccc(N3C(=S)N(c4ccc(C#N)c(C(F)(F)F)c4)C(=O)C3(C)C)cc2)C(C)(C)C)cc1 [Example 231]
DC50: > 501 nM
Dmax [2]: 51 to 70%

Cc1ncsc1-c1ccc(CNC(=O)[C@@H]2C[C@@H](O)CN2C(=O)[C@@H](NC(=O)CCOCCNC(=O)CCCc2ccc(N3C(=S)N(c4ccc(C#N)c(C(F)(F)F)c4)C(=O)C3(C)C)cc2)C(C)(C)C)cc1 [Example 232]
DC50: > 501 nM
Dmax [2]: 26 to 50%

Cc1ncsc1-c1ccc(CNC(=O)[C@@H]2C[C@@H](O)CN2C(=O)[C@@H](NC(=O)CCOCCOc2ccc(N3C(=S)N(c4ccc(C#N)c(C(F)(F)F)c4)C(=O)C3(C)C)cc2)C(C)(C)C)cc1 [Example 233]
DC50: > 501 nM
Dmax [2]: 51 to 70%

Cc1ncsc1-c1ccc(CNC(=O)C2C[C@@H](OC(C)(C)C)CN2C(=O)[C@H](C(C)C)N2Cc3ccccc3C2=O)c(OCCOCCOCCOc2ccc(N3C(=O)N(c4ccc(C#N)c(C(F)(F)F)c4)C(=O)C3(C)C)cc2)c1 (some centres unmarked) [Example 234]
DC50: 51 to 500 nM
Dmax [2]: 26 to 50%

Cc1ncsc1-c1ccc(CNC(=O)C2C[C@@H](O)CN2C(=O)[C@H](C(C)C)N2Cc3ccccc3C2=O)c(OCCOCCOCCOc2ccc(N3C(=O)N(c4ccc(C#N)c(C(F)(F)F)c4)C(=O)C3(C)C)cc2)c1 (some centres unmarked) [Example 235]
DC50: 51 to 500 nM
Dmax [2]: 51 to 70%

Cc1ncsc1-c1ccc(CNC(=O)[C@@H]2C[C@@H](O)CN2C(=O)[C@@H](NC(=O)COCCOc2ccc(N3C(=S)N(c4ccc(C#N)c(C(F)(F)F)c4)C(=O)C3(C)C)cc2)C(C)(C)C)cc1 [Example 236]
DC50: > 501 nM
Dmax [2]: 26 to 50%

Cc1ncsc1-c1ccc(CNC(=O)[C@@H]2C[C@@H](O)CN2C(=O)[C@@H](NC(=O)CCCOc2ccc(N3C(=S)N(c4ccc(C#N)c(C(F)(F)F)c4)C(=O)C3(C)C)cc2)C(C)(C)C)cc1 [Example 237]
DC50: > 501 nM
Dmax [2]: 26 to 50%

Reference: patent publication US11427548B2 (Arvinas Operations, Inc., priority 2015, dated 2022)
